We go through one molecule from patent US12691124B2, “Methods of controlling and improving brain health” (ICAHN SCHOOL OF MEDICINE AT MOUNT SINAI, priority 2019, dated 2026).

One experiment has as its system primary microglia. As to the kind of experiment: Gene expression in primary microglia treated with IBET858. It is filed as cell-based, mouse. The procedure:
Primary Microglia Culture. Postnatal day 0 C57/Bl6 mice were decapitated in ice cold HBSS. The forebrain was rapidly dissected and treated as above in order to generate a single cell suspension. 60,000 cells per cm2 were seeded in vented, Poly-D-lysine coated flasks. Mixed glial cultures were maintained in DMEM containing 10% FBS and 1% penicillin/streptomycin for 3 weeks. After three weeks, microglia were isolated by shaking the mixed glial cultures for 4 hours at 360 rpm and re-plated at density on 100,0000 cells/cm2. Cultures were given 24 hours to settle before treatment. Cultures were pre-treated for 30 minutes with either DMSO (0.01%) or 1 uM IBET858. After 30 minutes, LPS (100 ng/ml) was added to the cultures. RNA was isolated with Trizol LS according to the manufacturer's recommendations after 1, 4 and 12 hours of LPS treatment.
To test the role of BET proteins in microglial gene expression, primary microglia cultures from mouse forebrain were treated with the brain-permeable BET inhibitors IBET858 (1 μM) for 1, 4, or 12 hours (FIG. 3A). Because loss of BET activity in macrophages negatively impacts differentiation and proliferation189, microglia identity genes were examined to understand if microglial lineage is regulated by BET proteins (FIG. 3C). Hexb, Fcrls, and Fcer1g expression was unaffected by IBET858 indicating microglial differentiation is unaffected.

In a further experiment the test system is primary cortical neurons. As to the kind of experiment: Hypoxia (1% O2) induced neuronal death. In kind it is cell-based, mouse. The settings on record: 1% O2, 1 week pretreatment. An excerpt:
While glutamate toxicity is a widely used and clinically relevant assay, there are other factors that contribute to neuronal death in vivo such as lack of oxygen which occurs after stroke or protein aggregates which are observed in many neurodegenerative disorders. To understand if the observed protective effect is specific to glutamate toxicity, neurons were exposed to either hypoxic (1% O2) environments or Aβ1-43 oligomers (FIGS. 10E and 10F).
IBET treatment protects neurons from neurotoxin-induced cell death (FIGS. 22C-22E). Dot plots show the percentage of cells that are propidium iodide negative after different neurotoxic insults when pre-treated with either control or iBET for 1 week. 6 hours and 24 hours after 1 mM glutamate exposure are shown in FIG. 22C; 18 hours, 24 hours, and 48 hours of hypoxia (1% O2) are shown in FIG. 22D; and 48 hours and 72 hours of Aβ1-43 oligomer exposure (10 μM) are shown in FIG. 22E. Two-way repeated measures ANOVA with multiple comparisons, n=3 per group, ***p<0.001. Experiments were repeated a minimum of three times.

Experiment [1] deals with C57bl/6 mice. In words: Kainic acid injection in the hippocampus, cCASP3 immunostaining. It is filed as in vivo, mouse. To be noted: 30 mg/kg i.p. daily 1 week, then kainic acid, 24 h. Here is the method:
C57bl/6 mice were daily treated with IBET858 (30 mg/kg, i.p.) for 1 week, followed by stereotaxic injection of kainic acid in the hippocampus. Mice were perfused 24 hours after kainic acid injection and brains were immunostained for cCASP3 to identify dying cells.

Experiment [2] concerns C57bl/6 mice. As to the kind of experiment: Brain gene expression in IBET858 treated mice. In kind it is in vivo, mouse. Here is the method: In vivo I-BET858 treatment. IBET858 was developed and validated by GlaxoSmithKline. I-BET858 solutions used for in vivo studies (3 mg/ml) were prepared in 10% Kleptose buffer with 5% DMSO (pH 6.5) and maintained at 4° C. I-BET858 was made fresh daily, buffers were made fresh each week. 30 mg/kg I-BET858 or vehicle (Kleptose buffer pH=6.5) was delivered by i.p injection. For acute treatment, 6-week-old mice received a single I-BET858 injection. […] Gene expression and behavioral changes were assessed in 6 weeks old mice at 4 h (acute, n=8-10 for behavior, n=2 for gene expression analysis) or 12 h (chronic, n=10 for behavior, n=2 for gene expression analysis) after the (last) I-BET858 injection, respectively.
RNA Isolation. For in vitro gene expression analysis, neuronal culture plates were washed once with PBS, and TRIzol was added directly to cultures to isolate RNA (n=3 per group). For in vivo gene expression analysis, mice were anesthetized with CO2 and decapitated. The striata from two control and acute or chronic I-BET treated mice were rapidly dissected on ice and frozen in liquid nitrogen. RNA extraction from frozen samples was performed using TRIzol/Chloroform according to manufacturer's instructions (Invitrogen Corporation, Carlsbad, CA). RNA was precipitated overnight at −80° C. in isopropanol with 0.15 M sodium acetate, washed twice with 70% ethanol, air-dried, and resuspended in RNase-free water. RNA samples were purified using Rneasy Micro columns (Qiagen) with on-column DNAse treatment as specified by manufacturer. RNA integrity was assayed using nanodrop and RNA Pico chip on Bioanalyzer 2100 (Agilent, Santa Clara, CA) for quality RIN>9.
IBET treatment induces neuroprotective gene expression changes in the hippocampus of mice in vivo (FIG. 23A).

[3] abbreviates: IBET858 treated mice compared to vehicle.

As for `CC(=O)N1c2ccc(-c3ccc(CN4CCCCC4)cc3)cc2[C@H](Nc2ccccc2)CC1C` (stereo in doubt) [IBET858], the “immune response and cell activation pathway genes” value in the experiment on primary microglia (1 μM) was “suppresses”. In addition, the genes significantly down-regulated in the experiment on primary microglia (1 μM IBET858, 4 hours) was 1245 genes; with primary microglia (1 μM IBET858, 12 hours) it was 1175 genes. Besides, the “microglia identity gene expression (Hexb, Fcrls, Fcer1g)” value in the experiment on primary microglia (1 μM, 1, 4 or 12 hours) is “unaffected”. In addition, the phagocytosis gene expression result with primary microglia (1 μM, all time points) is on record as “also unaffected”. Moreover, the “loss of neurons due to hypoxia” value with primary cortical neurons was “significantly prevents loss of neurons”. The “glutamate-induced toxicity in vivo (cCASP3 dying cells)” value in the experiment on C57bl/6 mice [1] is recorded as “protects neurons from glutamate-induced toxicity in vivo”. For the same molecule, in the experiment with C57bl/6 mice [2] (5 week IBET858 treatment in vivo), the “Casp3 gene expression levels” value is reported as “unaffected”. In addition, the “autophagy and proteostasis genes” value with C57bl/6 mice [2] (setting [3]) is recorded as “increased”. Besides, the “genes involved in metabolic pathways” value with C57bl/6 mice [2] (setting [3]) is given as “downregulated”.
